Patent US6504005B1, “Long-acting drugs and pharmaceutical compositions comprising them” (Yeda Research and Development Co. Ltd., priority 1996, dated 2003)
Where “and” joins values, the source holds several entries; their conditions need not be identical. Identical values can stand only once. Like-named read-outs stand apart in the source and are kept apart here.

What was measured:
Staphylococcus aureus = details: relative to cephalexin control
Protocol: At the indicated time points, aliquots were withdrawn and analyzed for their potency to arrest growth of Staphylococcus aureus. Bacterial growth was then evaluated by increased turbidity measured spectroscopically at 700 nm.

intact rat adipocytes = format: cell-based; details: for Activity following incubation at pH 8.5, 37° C. (%), 9 hrs: 9 hrs at pH 8.5, 37° C.; for Activity following incubation at pH 8.5, 37° C. (%), 20 hrs: 20 hrs at pH 8.5, 37° C.; for Activity following incubation at pH 8.5, 37° C. (%), 45 hrs: 45 hrs at pH 8.5, 37° C.
Protocol: (iii) Lipogenesis (Incorporation of Labeled Glucose into the Lipids of Intact Adipocytes) Rat adipocytes were prepared essentially by the method of Rodbell, 1964. The fat pads of male Wistar rats were cut into small pieces with scissors and suspended in 3 ml of KRB buffer containing NaCl, 110 mM; NaHCO3, 25 mM; Kcl, 5 mM; […] CaCl2, 1.3 mM; […] Five milliliters of buffer was then added, and the cells were passed through a mesh screen. The cells were then allowed to stand for several minutes in a 15 ml plastic test tube at room temperature, floating, and the buffer underneath was removed. This procedure (suspension, floating, and removal of buffer underneath) was repeated three times. […] Lipogenesis was terminated by adding toluene-based scintillation fluid (1.0 ml per vial) and the radioactivity in extracted lipids was counted (Moody et al., 1974).

normal rats = assay: Single intraperitoneal administration to normal rats, blood glucose levels; format: in vivo; details: single i.p. injection, 3 mg/rat
Protocol: This assay reflects the post-subcutaneous long-acting feature of insulin (or insulin derivatives) within the circulation. Normal rats received a single intraperitoneal injection of native insulin, NPH-insulin and (Fmoc)2-insulin (3 mg/rat), and their blood glucose levels were monitored over a period of three days.
Blood glucose levels were followed for two days.

hGH receptor = assay: Displacement of iodinated hGH (receptor binding assay)
Protocol: Incubation of Fmoc-hGH at pH 8.5 (37° C.) for about 6 days or at pH 10.5 (37° C.) for four days yielded fully active, native hGH, as judged by HPLC analysis and by receptor binding assays.

[1] = Conversion of Fmoc-hGH to native hGH upon incubation (analytical HPLC); format: physicochemical; details: pH 8.5, 37° C.
Protocol: Conversion of Fmoc-hGH to native hGH was evaluated by the increase in peak area corresponding to native hGH.

[2] = not given; remark: listed apart in the source
[3] = Solubility and appearance in aqueous buffer (pH 7.4)
[4] = molecular target: insulin receptor tyrosine kinase (Rattus norvegicus, UniProt P15127); assay: Insulin receptor tyrosine kinase activity, [poly(Glu4Tyr)] phosphorylating assay (cell-free); details: for Biological potency following incubation (2 days, 37° C., pH 8.5): after 2 days; for Biological potency (%): of native insulin potency, before incubation, [poly(Glu4Tyr)] phosphorylating assay
Chain of insulin receptor tyrosine kinase (P15127 27-759 limits assumed): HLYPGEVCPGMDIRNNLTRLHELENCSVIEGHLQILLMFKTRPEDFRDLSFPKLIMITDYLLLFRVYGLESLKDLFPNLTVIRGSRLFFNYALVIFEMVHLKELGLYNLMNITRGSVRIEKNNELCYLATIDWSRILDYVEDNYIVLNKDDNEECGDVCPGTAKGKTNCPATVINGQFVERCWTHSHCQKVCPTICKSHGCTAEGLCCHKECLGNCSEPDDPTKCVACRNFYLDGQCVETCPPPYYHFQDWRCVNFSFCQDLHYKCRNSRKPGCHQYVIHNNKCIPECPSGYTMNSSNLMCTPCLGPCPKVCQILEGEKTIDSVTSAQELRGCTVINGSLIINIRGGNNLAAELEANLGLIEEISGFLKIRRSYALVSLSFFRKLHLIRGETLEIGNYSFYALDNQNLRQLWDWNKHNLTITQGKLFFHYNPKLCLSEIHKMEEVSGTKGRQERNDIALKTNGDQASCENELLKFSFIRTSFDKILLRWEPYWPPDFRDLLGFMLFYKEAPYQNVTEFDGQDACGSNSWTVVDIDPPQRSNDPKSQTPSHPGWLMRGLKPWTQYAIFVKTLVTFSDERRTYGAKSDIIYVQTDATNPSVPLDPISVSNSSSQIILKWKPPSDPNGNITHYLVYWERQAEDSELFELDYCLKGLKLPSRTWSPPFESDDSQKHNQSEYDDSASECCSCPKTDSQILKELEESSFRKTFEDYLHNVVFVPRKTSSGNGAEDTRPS
Chain of insulin receptor tyrosine kinase (P15127 764-1383 partner limits assumed): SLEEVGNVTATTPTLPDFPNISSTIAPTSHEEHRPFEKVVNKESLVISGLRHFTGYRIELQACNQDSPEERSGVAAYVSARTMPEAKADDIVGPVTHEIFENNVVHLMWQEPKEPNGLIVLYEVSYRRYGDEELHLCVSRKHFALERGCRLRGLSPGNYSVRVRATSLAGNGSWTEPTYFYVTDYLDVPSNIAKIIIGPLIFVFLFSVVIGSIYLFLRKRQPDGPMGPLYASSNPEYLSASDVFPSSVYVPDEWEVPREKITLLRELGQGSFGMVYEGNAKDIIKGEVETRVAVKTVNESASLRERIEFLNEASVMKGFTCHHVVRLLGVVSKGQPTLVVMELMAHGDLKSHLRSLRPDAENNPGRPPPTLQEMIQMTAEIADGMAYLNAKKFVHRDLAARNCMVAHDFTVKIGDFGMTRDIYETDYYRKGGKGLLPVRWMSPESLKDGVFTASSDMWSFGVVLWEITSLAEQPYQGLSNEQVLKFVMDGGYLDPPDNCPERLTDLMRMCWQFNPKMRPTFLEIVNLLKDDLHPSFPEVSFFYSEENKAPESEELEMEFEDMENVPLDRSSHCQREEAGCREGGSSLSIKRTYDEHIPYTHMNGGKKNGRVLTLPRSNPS
Protocol: Briefly, the liver was homogenized in the presence of proteinase inhibitors, solubilized with 1% Triton X-100, and centrifuged. The supernatant was allowed to pass through a wheat-germ agglutinin (WGA)-agarose column (Sigma). Adsorbed insulin receptor portion was eluted with 0.3M N-acetyl-D-glucose amine in 50 mM HEPES buffer, pH 7.4, containing 0.1% Triton X-100, 10% glycerol, and 0.15M NaCl.
(iv) Receptor Tyrosine Kinase Activity Measurement
In this assay insulin activates its own receptor to phosphorylate a random copolymer containing L-glutamic acid and L-tyrosine at 4:1 molar ratio [Poly(Glu4Tyr)]SEQ ID NO:1. The standard enzyme assay mixture (final volume 60 μl in 50 mM Hepes, pH 7.4-0.1% Triton X-100) contained WGA purified insulin receptor (5μg protein), 20 mM MgCl2, 2 mM MnCl2, 100 μM ATP and varying concentrations (from 1 ng/ml to 10 mg/ml) of insulin or insulin derivative. Following a 30 min preincubation at 22° C., the reaction was initiated by adding Poly(Glu4Tyr) SEQ ID NO:1 (final concentration 0.7 mg/ml), it proceeded for 20 min at 22° C. and was terminated by adding EDTA (20 mM). Phosphotyrosine content in PolyGlu4Tyr was quantitated by a radio-immunoassay procedure using specific monoclonal antibodies to phosphotyrosine (final dilution 1: 100,000) and ^125I-BSA-phosphotyrosine conjugate.

[5] = cited from earlier work
[6] = format: physicochemical
Protocol: (i.e. at physiological pH and body temperature). At the indicated time points aliquots were withdrawn for determining the biological potency relative to native insulin. Biological activities were evaluated by Insulin receptor tyrosine kinase activation (a cell free assay as described in Biological Procedures above, section (iv)) and by stimulation of lipogenesis in intact rat adipocytes as described in Biological Procedures, […].

STZ-diabetic rats = assay: Single subcutaneous administration to STZ-diabetic rats (blood glucose, daily weight gain); details: STZ rats
Protocol: Diabetes was induced by a single intravenous injection of a freshly prepared solution of streptozotocin (55 mg/kg body weight) in 0.1M citrate buffer (pH 4.5) according to Meyerovitch et al., 1987.
Blood glucose levels and daily weight gains were followed over a period of seven days.
Group C (n=5) received the vehicle only (2.0 ml of 20% DMSO). Blood glucose levels were determined daily.

E. coli = format: cell-based; details: for IC50: read-out: Concentration inhibiting 50% of bacterial growth; for Antimicrobial potency (%): relative to PMXB control
Protocol: At the indicated time points aliquots were withdrawn and analyzed for their potencies to arrest growth of E. coli, and bacterial growth was then evaluated by measuring turbidity at 700 nm.

CC1=C(C(=O)O)N2C(=O)[C@@H](NC(=O)[C@H](N)c3ccccc3)[C@H]2SC1 [native cephalexin, 7-(D-α-aminophenylacetamido)desacetoxycephalosporanic acid, reference compound]
Antimicrobial potency (%) (Staphylococcus aureus; after 1 day at pH 7.4, 37° C.): 100% | Antimicrobial potency (%) (Staphylococcus aureus; after 3 days at pH 7.4, 37° C.): 100% | Antimicrobial potency (%) (Staphylococcus aureus; after 6 days at pH 7.4, 37° C.): 100% | Antimicrobial potency (%) (Staphylococcus aureus; no incubation): 100%

(Sulfmoc)2-insulin: insulin carrying two (2-sulfo)Fmoc groups on amino groups, water soluble
Biologically active (%) (intact rat adipocytes; before incubation, assay not given): 0.5% | t½ of return to fully-active native insulin (increase in biological potency) (intact rat adipocytes; pH 8.5): 4-6 hours | Period of hypoglycemia / reduced blood glucose (normal rats): 24 h | Recovery from hypoglycemia, t½ (normal rats): 14 h | Time to full reversion / hydrolysis to the native hormone, pH 7.4 (37° C., pH 7.4): 10 days | t½ of reversion, pH 7.4 (buffer, pH 7.4): 6 days | t½ of reversion, pH 8.5 (buffer, pH 8.5): 12-15 hours | Increase in rate of hydrolysis versus Fmoc moiety (sulfonic acid group at position 2): 2-3 fold

Fmoc-hGH: human growth hormone modified with Fmoc-OSu
Ability to displace iodinated hormone (%) (hGH receptor; after 1 day, pH 10.5, 37° C.): 25% | Ability to displace iodinated hormone (%) (hGH receptor; after 4 days, pH 10.5, 37° C.): 100% | Ability to displace iodinated hormone (%) (hGH receptor; no treatment): 15% | Incubation time yielding fully active, native hGH, pH 10.5 (hGH receptor; pH 10.5, 37° C.): four days | Conversion to hGH (%) ([1]; 1 day): 23% | Conversion to hGH (%) ([1]; 2 days): 62% | Conversion to hGH (%) ([1]; 6 days): 100% | Incubation time yielding fully active, native hGH, pH 8.5 [1]: about 6 days

Gly^A1, Lys^B29-N-(Fmoc)2-insulin
Activity following incubation at pH 8.5, 37° C. (%), 9 hrs (intact rat adipocytes): 10% | Activity following incubation at pH 8.5, 37° C. (%), 20 hrs (intact rat adipocytes): 20% | Activity following incubation at pH 8.5, 37° C. (%), 45 hrs (intact rat adipocytes): 97% | Solubility in aqueous buffer (pH 7.4, mg/ml) [2]: ˜2 mg/ml | Appearance in aqueous buffer (pH 7.4) [3]: cloudy | Biological potency following incubation (2 days, 37° C., pH 8.5) [4]: 93 | Biological potency (%) [4]: 2 ± 1%

Gly^A1, Phe^B1-N-(Fmoc)2-insulin
Activity following incubation at pH 8.5, 37° C. (%), 9 hrs (intact rat adipocytes): 18% | Activity following incubation at pH 8.5, 37° C. (%), 20 hrs (intact rat adipocytes): 40% | Activity following incubation at pH 8.5, 37° C. (%), 45 hrs (intact rat adipocytes): 100% | Solubility in aqueous buffer (pH 7.4, mg/ml) [2]: ˜2 mg/ml | Appearance in aqueous buffer (pH 7.4) [3]: cloudy | Biological potency following incubation (2 days, 37° C., pH 8.5) [4]: 97 | Biological potency (%) [4]: 3 ± 1%

Gly^A1-N-(Fmoc)1-insulin [Gly^A1-N-Fmoc-insulin]
Activity following incubation at pH 8.5, 37° C. (%), 9 hrs (intact rat adipocytes): 50% | Activity following incubation at pH 8.5, 37° C. (%), 20 hrs (intact rat adipocytes): 100% | Solubility in aqueous buffer (pH 7.4, mg/ml) [2]: ˜3 mg/ml | Appearance in aqueous buffer (pH 7.4) [3]: nearly clear | Biological potency (%) [4]: 40 ± 2%

Insulin lispro: human insulin analog with the sequence at B28 and B29 reversed
Potency versus human insulin ([5]; in vivo): equipotent to human insulin | Absorption from subcutaneous injection sites ([5]; versus human insulin): absorbed more quickly

Lys^B29-N-(Fmoc)1-insulin
t½ of activation (half maximal activation) ([6]; buffer, pH 7.4): 120 h | Solubility in aqueous buffer (pH 7.4, mg/ml) [2]: ˜3 mg/ml | Appearance in aqueous buffer (pH 7.4) [3]: nearly clear | Biological potency following incubation (2 days, 37° C., pH 8.5) [4]: 94 | Biological potency (%) [4]: 78 ± 4%

Phe^B1, Lys^B29-N-(Fmoc)2-insulin
Activity following incubation at pH 8.5, 37° C. (%), 9 hrs (intact rat adipocytes): 10% | Activity following incubation at pH 8.5, 37° C. (%), 20 hrs (intact rat adipocytes): 20% | Activity following incubation at pH 8.5, 37° C. (%), 45 hrs (intact rat adipocytes): 98% | Lag period of activation ([6]; pH 7.4, 37° C.): not seen | Start of conversion to the native hormone after incubation ([6]; pH 7.4, 37° C.): starts shortly (within hours) after incubation | Period of hypoglycemia / reduced blood glucose (normal rats): about 48 hours | Recovery from hypoglycemia, t½ (normal rats): 26 h | Solubility in aqueous buffer (pH 7.4, mg/ml) [2]: ˜2 mg/ml | Appearance in aqueous buffer (pH 7.4) [3]: cloudy | Period of normoglycemia (STZ-diabetic rats; single s.c. 3 mg/rat): 4 days | Daily weight gain gram/rat (over the first three days) (STZ-diabetic rats; single s.c. 3 mg/rat, first three days): 11.5 ± 1.3 gram/rat | Effectiveness in lowering blood glucose levels (STZ-diabetic rats; single s.c. administration): as effective as the commercially available (insoluble) long-acting preparation | Biological potency (%) ([4]; Lys^B29-N-(Fmoc)2 insulin): 9% | Biological potency (%) ([4]; listed as N-(Fmoc)2-insulin Phe^B1, Lys^B29): 9 ± 2%

Phe^B1-N-(Fmoc)1-insulin
Solubility in aqueous buffer (pH 7.4, mg/ml) [2]: ˜3 mg/ml | Appearance in aqueous buffer (pH 7.4) [3]: nearly clear | Biological potency (%) [4]: 76 ± 4%

Polymyxin-B [native PMXB, reference compound]
IC50 (E. coli; 3 d, 37° C., pH 7.4): 0.055 µM | Antimicrobial potency (%) (E. coli; 3 d, 37° C., pH 7.4): 100% | IC50 (E. coli; 3 d, 37° C., pH 8.5): 0.1 µM | Antimicrobial potency (%) (E. coli; 3 d, 37° C., pH 8.5): 100% | IC50 (E. coli; 6 d, 37° C., pH 7.4): 0.228 µM | Antimicrobial potency (%) (E. coli; 6 d, 37° C., pH 7.4): 100% | IC50 (E. coli; 6 d, 37° C., pH 8.5): 0.2 µM | Antimicrobial potency (%) (E. coli; 6 d, 37° C., pH 8.5): 100% | IC50 (E. coli; no treatment): 0.05 µM | Antimicrobial potency (%) (E. coli; no treatment): 100%

di-9-(fluorenylmethoxycarbonyl)polymyxin B [(Fmoc)2-PMBX]
IC50 (E. coli; 3 d, 37° C., pH 7.4): 0.227 µM and 0.35 µM | IC50 (E. coli; 3 d, 37° C., pH 8.5): 0.125 µM | Antimicrobial potency (%) (E. coli; 3 d, 37° C., pH 8.5): 80% | IC50 (E. coli; 6 d, 37° C., pH 8.5): 0.2 µM | Antimicrobial potency (%) (E. coli; 6 d, 37° C., pH 8.5): 100% | t½ of hydrolysis back to active PMXB, pH 7.4 (E. coli; buffer, pH 7.4): ~1 days | t½ of hydrolysis back to active PMXB, pH 8.5 (E. coli; buffer, pH 8.5): ~3 days | IC50 (E. coli; no treatment): 5 µM | Antimicrobial potency (%) (E. coli; no treatment): ~1%

hGH: native human growth hormone (Biotechnology General)
Ability to displace iodinated hormone (%) (hGH receptor; no treatment): 100% | Stability under the conditions applied to Fmoc-hGH (hGH receptor; pH 10.5, 37° C., 4 days): ^(1)Displacement of iodinated hGH was carried out according to Gertler et al., 1984. Native hGH was fully stable under the conditions applied to Fmoc-hGH (pH 10.5, 37° C., 4 days).
